From patent publication US3982931A, “N,N-di-sec.butyl-benzamide herbicides” (priority 1967, dated 1976)

Columns and labels:
Portulaca oleracea L. = assay: herbicidal activity of PA 106 against infesting herbs; type: in vivo
Source text: (§1) Method of evaluation of the results (of tests):
(§2) 0 = no activity and no difference with respect to the control;
(§3) 1 slight differences with respect to the control;
(§4) 3 = considerable activity with damages that definitely impair the further development of most of the small plants; an activity degree already useful for practical purposes;
(§5) 4 = maximum of activity with lack of germination or total containment of the small plants in the emerging stage.
(§6) In the case of an intermediate activity between two classes of the scale, both values are recorded with the one which corresponds to the preeminent activity preceding.
(§7) TABLE 3 reports data on the herbicidal activity against infesting herbs, while TABLE 4 reports data concerning the activity on useful species of agricultural cultivations. These tables employ the criterion explained previously. The product was spread on the soil one day after sowing, in quantities of 1, 3, 6, 8, 10, 12 and 14 kg/ha.

[1] = tested on: beta vulgaris L. (sugar-beet); assay: activity on agrarian species, soil treatment one day after sowing; type: in vivo
In short: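 Product applied to soil one day after sowing at 1, 3, 6, 8, 10, 12 and 14 kg/ha. Crop damage scored against untreated control on a 0-4 scale, 4 meaning no germination or total containment of emerging plants.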

chenopodium album L. = assay: herbicidal activity, soil treatment one day after sowing; type: in vivo
zea mais L. (corn) = assay: activity on agrarian species, soil treatment one day after sowing; type: in vivo
In short: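 Crop injury rated 0–4 relative to control, from no difference up to complete germination failure or arrest of emerging plants; in-between responses get both values. Product spread on soil at 1–14 kg/ha (1, 3, 6, 8, 10, 12, 14) one day post-sowing.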

oryza sativa L. (rice) = assay: as above; type: in vivo
In short: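 Activity scored 0 (no difference from control) to 4 (no germination or total containment of emerging plants), intermediates given both classes. Product spread on soil one day after sowing rice, at rates of 1, 3, 6, 8, 10, 12 and 14 kg/ha.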

artemisia vulgaris L. = assay: herbicidal activity, soil treatment one day after sowing; type: in vivo
[2] = tested on: triticum vulgare L. (wheat); assay: activity on agrarian species, soil treatment one day after sowing; type: in vivo
In short: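 Wheat effects rated against untreated control on a 0 (no difference) to 4 (no germination or emergence fully contained) scale, with two-class scores for intermediate activity. Application was to soil one day post-sowing at rates of 1, 3, 6, 8, 10, 12 and 14 kg/ha.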

Gladiolus sp. = assay: activity of PA 106 on useful species (treatment after unearthing the tubers); type: in vivo
Source text: as §1, §2, §3, §4, §5, §6, §7
In the case of gladiolus, the treatment was carried out after unearthing the tubers.

rice = assay: plot-test in open field planted with rice; type: in vivo; conditions: even at 30 kg/ha of active substance
solanum Lycopersicum L. = assay: activity on agrarian species, soil treatment one day after sowing; type: in vivo; conditions: 6 kg/ha
In short: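 Soil treated one day after sowing. Activity scored against untreated control on a 0–4 scale, from 0 (no difference) to 4 (no germination or total containment at emergence); 3 marks practically useful damage. Intermediate activity recorded as both adjacent values.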

Brassica napus L. colza = assay: activity of PA 106 on useful species; type: in vivo
Source text: as §1, §2, §3, §4, §5, §6, §7

[3] = tested on: Hordeum vulgare L. (barley); assay: activity of PA 106 on useful species; type: in vivo
Source text: as §1, §2, §3, §4, §5, §6, §7

[4] = tested on: Brassica oleracea, L. (cabbage); assay: activity of PA 106 on useful species; type: in vivo
Source text: as §1, §2, §3, §4, §5, §6, §7

Soja Hispida L. (soya) = assay: activity of PA 106 on useful species; type: in vivo
Source text: as §1, §2, §3, §4, §5, §6, §7

avena sativa (oats) = assay: activity on agrarian species, soil treatment one day after sowing; type: in vivo, Avena sativa L.
[5] = tested on: amaranthus retroflexus L.; assay: herbicidal activity, soil treatment one day after sowing; type: in vivo

## CCC(C)N(C(=O)c1ccc(Cl)c(Cl)c1)C(C)CC (centres unmarked) [PA106, 3,4-dichloro-N,N-di-sec.butyl-benzamide]
Portulaca oleracea L.; 1 kg/ha
  herbicidal activity, Table 3: 0
Portulaca oleracea L.; 3 kg/ha
  herbicidal activity, Table 3: 1/2
Portulaca oleracea L.; 6 kg/ha
  herbicidal activity, Table 3: 3
Portulaca oleracea L.; 8 kg/ha
  herbicidal activity, Table 3: 3/4
Portulaca oleracea L.; 10 kg/ha
  herbicidal activity, Table 3: 4
Portulaca oleracea L.; 12 kg/ha
  herbicidal activity, Table 3: 4
Portulaca oleracea L.; 14 kg/ha
  herbicidal activity, Table 3: 4
[1]; 1 kg/ha
  activity on useful species, Table 4: 0
[1]; 3 kg/ha
  activity on useful species, Table 4: 0
[1]; 6 kg/ha
  activity on H, 0-4 scale: 1
  activity on useful species, Table 4: 1
[1]; 8 kg/ha
  activity on useful species, Table 4: 1
[1]; 10 kg/ha
  activity on useful species, Table 4: 1/2
[1]; 12 kg/ha
  activity on useful species, Table 4: 2
[1]; 14 kg/ha
  activity on useful species, Table 4: 2/3
Chenopodium album L.; 1 kg/ha
  herbicidal activity, Table 3: 0
Chenopodium album L.; 2 kg/ha
  activity on C, 0-4 scale: 0-1
Chenopodium album L.; 3 kg/ha
  herbicidal activity, Table 3: 1
Chenopodium album L.; 4 kg/ha
  activity on C, 0-4 scale: 1-2
Chenopodium album L.; 6 kg/ha
  activity on C, 0-4 scale: 3
  herbicidal activity, Table 3: 3
Chenopodium album L.; 8 kg/ha
  herbicidal activity, Table 3: 2/3
Chenopodium album L.; 10 kg/ha
  herbicidal activity, Table 3: 3
Chenopodium album L.; 14 kg/ha
  herbicidal activity, Table 3: 3/4
Zea mais L. (corn); 1 kg/ha
  activity on useful species, Table 4: 0
Zea mais L. (corn); 3 kg/ha
  activity on useful species, Table 4: 0
Zea mais L. (corn); 6 kg/ha
  activity on O, 0-4 scale: 0
  activity on useful species, Table 4: 0
Zea mais L. (corn); 8 kg/ha
  activity on useful species, Table 4: 0
Zea mais L. (corn); 10 kg/ha
  activity on useful species, Table 4: 0
Zea mais L. (corn); 12 kg/ha
  activity on useful species, Table 4: 0/1
Zea mais L. (corn); 14 kg/ha
  activity on useful species, Table 4: 1
Oryza sativa L. (rice); 1 kg/ha
  activity on useful species, Table 4: 0
Oryza sativa L. (rice); 3 kg/ha
  activity on useful species, Table 4: 0
Oryza sativa L. (rice); 6 kg/ha
  activity on P, 0-4 scale: 0
  activity on useful species, Table 4: 0
Oryza sativa L. (rice); 8 kg/ha
  activity on useful species, Table 4: 0
Oryza sativa L. (rice); 10 kg/ha
  activity on useful species, Table 4: 0
Oryza sativa L. (rice); 12 kg/ha
  activity on useful species, Table 4: 0
Oryza sativa L. (rice); 14 kg/ha
  activity on useful species, Table 4: 0/1
Artemisia vulgaris L.; 1 kg/ha
  herbicidal activity, Table 3: 0
Artemisia vulgaris L.; 2 kg/ha
  activity on B, 0-4 scale: 0-1
Artemisia vulgaris L.; 3 kg/ha
  herbicidal activity, Table 3: 1
Artemisia vulgaris L.; 4 kg/ha
  activity on B, 0-4 scale: 1-2
Artemisia vulgaris L.; 6 kg/ha
  activity on B, 0-4 scale: 3
  herbicidal activity, Table 3: 3
Artemisia vulgaris L.; 8 kg/ha
  herbicidal activity, Table 3: 3
Artemisia vulgaris L.; 10 kg/ha
  herbicidal activity, Table 3: 3
Artemisia vulgaris L.; 12 kg/ha
  herbicidal activity, Table 3: 4/3
Artemisia vulgaris L.; 14 kg/ha
  herbicidal activity, Table 3: 4
[2]; 1 kg/ha
  activity on useful species, Table 4: 0
[2]; 3 kg/ha
  activity on useful species, Table 4: 0
[2]; 6 kg/ha
  activity on N, 0-4 scale: 0
  activity on useful species, Table 4: 0
[2]; 8 kg/ha
  activity on useful species, Table 4: 0/1
[2]; 10 kg/ha
  activity on useful species, Table 4: 0/1
[2]; 12 kg/ha
  activity on useful species, Table 4: 1
[2]; 14 kg/ha
  activity on useful species, Table 4: 1
Gladiolus sp.; 1 kg/ha
  activity on useful species, Table 4: 0
Gladiolus sp.; 3 kg/ha
  activity on useful species, Table 4: 0
Gladiolus sp.; 6 kg/ha
  activity on useful species, Table 4: 0
Gladiolus sp.; 8 kg/ha
  activity on useful species, Table 4: 0
Gladiolus sp.; 10 kg/ha
  activity on useful species, Table 4: 0
Gladiolus sp.; 12 kg/ha
  activity on useful species, Table 4: 0
Gladiolus sp.; 14 kg/ha
  activity on useful species, Table 4: 0
rice
  phytotoxic effects on the rice: no phytotoxic effects
Solanum Lycopersicum L.
  activity on M, 0-4 scale: 0
Brassica napus L. colza; 1 kg/ha
  activity on useful species, Table 4: 0
Brassica napus L. colza; 3 kg/ha
  activity on useful species, Table 4: 0
Brassica napus L. colza; 6 kg/ha
  activity on useful species, Table 4: 1
Brassica napus L. colza; 8 kg/ha
  activity on useful species, Table 4: 1/2
Brassica napus L. colza; 10 kg/ha
  activity on useful species, Table 4: 2/3
Brassica napus L. colza; 12 kg/ha
  activity on useful species, Table 4: 3
Brassica napus L. colza; 14 kg/ha
  activity on useful species, Table 4: 3
[3]; 1 kg/ha
  activity on useful species, Table 4: 0
[3]; 3 kg/ha
  activity on useful species, Table 4: 0
[3]; 6 kg/ha
  activity on useful species, Table 4: 0
[3]; 8 kg/ha
  activity on useful species, Table 4: 0
[3]; 10 kg/ha
  activity on useful species, Table 4: 0/1
[3]; 12 kg/ha
  activity on useful species, Table 4: 0/1
[3]; 14 kg/ha
  activity on useful species, Table 4: 0/1
[4]; 1 kg/ha
  activity on useful species, Table 4: 0
[4]; 3 kg/ha
  activity on useful species, Table 4: 0
[4]; 6 kg/ha
  activity on useful species, Table 4: 0/1
[4]; 8 kg/ha
  activity on useful species, Table 4: 1
[4]; 10 kg/ha
  activity on useful species, Table 4: 1/2
[4]; 12 kg/ha
  activity on useful species, Table 4: 1/2
[4]; 14 kg/ha
  activity on useful species, Table 4: 2
Soja Hispida L. (soya); 1 kg/ha
  activity on useful species, Table 4: 0
Soja Hispida L. (soya); 3 kg/ha
  activity on useful species, Table 4: 0
Soja Hispida L. (soya); 6 kg/ha
  activity on useful species, Table 4: 0
Soja Hispida L. (soya); 8 kg/ha
  activity on useful species, Table 4: 0
Soja Hispida L. (soya); 10 kg/ha
  activity on useful species, Table 4: 0/1
Soja Hispida L. (soya); 12 kg/ha
  activity on useful species, Table 4: 0/1
Soja Hispida L. (soya); 14 kg/ha
  activity on useful species, Table 4: 0/1
Avena sativa (oats); 1 kg/ha
  activity on useful species, Table 4: 0
Avena sativa (oats); 3 kg/ha
  activity on useful species, Table 4: 0
Avena sativa (oats); 6 kg/ha
  activity on G, 0-4 scale: 0
  activity on useful species, Table 4: 0
Avena sativa (oats); 8 kg/ha
  activity on useful species, Table 4: 0
Avena sativa (oats); 10 kg/ha
  activity on useful species, Table 4: 0/1
Avena sativa (oats); 12 kg/ha
  activity on useful species, Table 4: 0/1
Avena sativa (oats); 14 kg/ha
  activity on useful species, Table 4: 1
[5]; 1 kg/ha
  herbicidal activity, Table 3: 0
[5]; 2 kg/ha
  activity on A, 0-4 scale: 1
[5]; 3 kg/ha
  herbicidal activity, Table 3: 1/2
[5]; 4 kg/ha
  activity on A, 0-4 scale: 2
[5]; 6 kg/ha
  activity on A, 0-4 scale: 3
  herbicidal activity, Table 3: 3
[5]; 8 kg/ha
  herbicidal activity, Table 3: 4/3
[5]; 10 kg/ha
  herbicidal activity, Table 3: 4
[5]; 12 kg/ha
  herbicidal activity, Table 3: 4
[5]; 14 kg/ha
  herbicidal activity, Table 3: 4
